# Measured values: the supplement of paper PMC11451515
# Test system: SEM cells
# Experiment: cell viability relative to DMSO control; higher = less cytotoxic
# Settings: 48 h
# Method in brief: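 Viability values are per-plate percentages of DMSO wells, with background from cell-free wells. Library compounds in DMSO were pin-dosed, in an 11-point threefold series from 47 μM to 0.79 nM, onto NOMO1 or SEM (500 cells/well) or P12-Ichikawa (1000 cells/well) leukemia cells in 1536-well plates (5 μl). Those cells had been adapted for at least four passages in each medium, and CellTiter-Glo One luminescence was read after 48 h at 37°C.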
# [1] = HPLM + 10% dialyzed FBS, 0.000781 µM
# [2] = HPLM + 10% dialyzed FBS, 0.00234 µM
# [3] = HPLM + 10% dialyzed FBS, 0.00702 µM
# [4] = HPLM + 10% dialyzed FBS, 0.0211 µM
# [5] = HPLM + 10% dialyzed FBS, 0.0632 µM
# [6] = HPLM + 10% dialyzed FBS, 0.19 µM
# [7] = HPLM + 10% dialyzed FBS, 0.569 µM
# [8] = HPLM + 10% dialyzed FBS, 1.71 µM
# [9] = HPLM + 10% dialyzed FBS, 5.12 µM
# [10] = HPLM + 10% dialyzed FBS, 15.4 µM
# [11] = HPLM + 10% dialyzed FBS, 46.1 µM
# [12] = RPMI 5 mM glucose + 10% FBS, 0.000781 µM
# [13] = RPMI 5 mM glucose + 10% FBS, 0.00234 µM
# [14] = RPMI 5 mM glucose + 10% FBS, 0.00702 µM
# [15] = RPMI 5 mM glucose + 10% FBS, 0.0211 µM
# [16] = RPMI 5 mM glucose + 10% FBS, 0.0632 µM
# [17] = RPMI 5 mM glucose + 10% FBS, 0.19 µM
# [18] = RPMI 5 mM glucose + 10% FBS, 0.569 µM
# [19] = RPMI 5 mM glucose + 10% FBS, 1.71 µM
# [20] = RPMI 5 mM glucose + 10% FBS, 5.12 µM
# [21] = RPMI 5 mM glucose + 10% FBS, 15.4 µM
# [22] = RPMI 5 mM glucose + 10% FBS, 46.1 µM
# [23] = RPMI 5 mM glucose + 10% dialyzed FBS, 0.000781 µM
# [24] = RPMI 5 mM glucose + 10% dialyzed FBS, 0.00234 µM
# [25] = RPMI 5 mM glucose + 10% dialyzed FBS, 0.00702 µM
# [26] = RPMI 5 mM glucose + 10% dialyzed FBS, 0.0211 µM
# [27] = RPMI 5 mM glucose + 10% dialyzed FBS, 0.0632 µM
# [28] = RPMI 5 mM glucose + 10% dialyzed FBS, 0.19 µM
# [29] = RPMI 5 mM glucose + 10% dialyzed FBS, 0.569 µM
# [30] = RPMI 5 mM glucose + 10% dialyzed FBS, 1.71 µM
# [31] = RPMI 5 mM glucose + 10% dialyzed FBS, 5.12 µM
# [32] = RPMI 5 mM glucose + 10% dialyzed FBS, 15.4 µM
# [33] = RPMI 5 mM glucose + 10% dialyzed FBS, 46.1 µM
SMILES,cell viability [1],cell viability [2],cell viability [3],cell viability [4],cell viability [5],cell viability [6],cell viability [7],cell viability [8],cell viability [9],cell viability [10],cell viability [11],cell viability [12],cell viability [13],cell viability [14],cell viability [15],cell viability [16],cell viability [17],cell viability [18],cell viability [19],cell viability [20],cell viability [21],cell viability [22],cell viability [23],cell viability [24],cell viability [25],cell viability [26],cell viability [27],cell viability [28],cell viability [29],cell viability [30],cell viability [31],cell viability [32],cell viability [33]
CC(C)(O)/C=C\C(=O)[C@](C)(O)[C@H]1[C@H](O)C[C@]2(C)[C@@H]3CC=C4[C@@H](C=C(O)C(=O)C4(C)C)[C@]3(C)C(=O)C[C@@]12C,92.4%,91.3%,119%,100%,51.8%,24%,24%,21.7%,20.4%,6.86%,4.91%,97.5%,85.7%,109%,101%,35%,15.8%,13.7%,11%,11.9%,6.54%,5.36%,104%,78.7%,103%,108%,55.6%,17.5%,14.2%,12.8%,12.5%,6.59%,5.46%
CO/N=C(\C(=O)N[C@@H]1C(=O)N2C(C(=O)OCOC(=O)C(C)(C)C)=C(/C=C\c3scnc3C)CS[C@H]12)c1csc(N)n1,75.6%,89.4%,86.9%,80.8%,93.7%,101%,94.8%,97.3%,86.7%,90.6%,70.4%,87.1%,90.7%,91.4%,76.6%,89%,103%,91.5%,98.9%,86.5%,65.2%,58.5%,75.3%,101%,108%,93.7%,119%,102%,99.4%,125%,105%,73%,62.9%
C[C@]12CC[C@H]3[C@@H](CCC/4=C/C(=O)CC[C@]34C)[C@@H]1CC[C@@H]2OC(=O)CCC5CCCC5,90%,92.3%,99.1%,102%,104%,99.9%,95.6%,104%,101%,97.1%,111%,99.7%,86.2%,109%,105%,122%,115%,131%,101%,124%,98.8%,94.6%,99.5%,105%,101%,113%,104%,104%,108%,121%,124%,90.6%,109%
C[C@H]1COC/2=C1/C(=O)C(=O)C3=C4CCCC(C)(C)C4=CC=C23,116%,93.8%,113%,126%,126%,134%,125%,106%,92.1%,84.1%,43.1%,124%,114%,135%,128%,141%,130%,106%,85.3%,42.1%,38.1%,12.5%,112%,107%,118%,128%,140%,116%,111%,104%,67.4%,64.5%,17.3%
C[C@@]1(C(=O)Nc2ccc(F)nc2)CCCN1c1nc(Nc2cc(C3CC3)[nH]n2)c2cccn2n1,90.8%,98.6%,106%,97.2%,101%,98.8%,81.9%,103%,30.6%,21.4%,9.04%,56.6%,68.8%,64.6%,70.6%,72.6%,77.2%,66.1%,60.1%,10.9%,8.82%,2.55%,95.4%,89.5%,102%,107%,112%,92.3%,104%,96.5%,18.8%,16.4%,6.22%
COc1cc(/C=C/C(=O)O)ccc1O,80.5%,92.9%,64.5%,93.6%,92.8%,90.1%,91.9%,106%,44.8%,89.9%,100%,94.1%,89%,62.1%,84.1%,99.5%,94.9%,101%,101%,37.5%,88.4%,98.1%,93.4%,99.2%,68.6%,110%,115%,106%,109%,104%,46%,105%,106%
O.O.CCN1CCN(C(=O)N[C@H](C(=O)N[C@H]2[C@@H]3SC\C(=C(/N3C2=O)C(O)=O)CSC4=NN=N[N]4C)C5=CC=C(O)C=C5)C(=O)C1=O,81%,81.3%,90.4%,20.6%,107%,95.4%,104%,101%,103%,98.6%,105%,99.1%,75.9%,99.4%,15.1%,95.3%,104%,107%,94.5%,90.9%,117%,98.8%,88.1%,80.5%,97.6%,17.3%,91.6%,106%,101%,99.7%,104%,93.4%,103%
COC(=O)\C1=C\CCN(C)C1,113%,109%,106%,113%,102%,117%,103%,105%,109%,114%,106%,107%,103%,106%,109%,104%,111%,111%,110%,98.8%,99.8%,110%,101%,111%,109%,115%,127%,106%,114%,124%,110%,106%,105%
CCCC1OC2C[C@H]3[C@@H]4CCC5=CC(=O)C=C[C@]5(C)[C@H]4C(O)C[C@]3(C)[C@]2(C(=O)CO)O1 (stereo partly drawn),88.6%,84.3%,97.1%,85.3%,69%,67%,62.2%,51%,48%,46.2%,27.4%,95.2%,125%,95.7%,86.7%,81.4%,66%,46.3%,59.9%,48.6%,46.2%,18.2%,87.4%,105%,100%,77.9%,68.8%,59.2%,53.4%,52.3%,50.5%,39.7%,19.3%
C#CCN[C@@H]1CCc2ccccc21.CS(=O)(=O)O,105%,101%,83.6%,86.2%,110%,108%,107%,106%,41.2%,91.7%,89.2%,103%,112%,56.8%,97.3%,112%,105%,106%,100%,24.4%,96%,95.2%,107%,116%,74.2%,82.9%,99.7%,105%,99.8%,106%,42.8%,110%,86.3%
CC(C)Oc1ccc(C(=O)N[C@H](CNC(=O)CN(C)C)Cc2ccc(-c3cn4cccc([C@H](C)O)c4n3)cc2)cc1Cl,116%,129%,112%,109%,118%,118%,102%,44.5%,33.5%,39.9%,48.5%,–,–,–,–,–,–,–,–,–,–,–,117%,119%,117%,125%,111%,111%,111%,38.2%,34.4%,29.4%,35.5%
N#C/C(C(=O)c1ccc(Cl)cc1Cl)=C1/NC(=O)c2ccc(Cl)cc2N1,124%,132%,124%,125%,129%,121%,123%,112%,110%,117%,111%,–,–,–,–,–,–,–,–,–,–,–,99.5%,125%,131%,126%,127%,108%,111%,137%,79.5%,105%,108%
O=[S+]([O-])(c1cccc2cnccc12)N1CCCNCC1,103%,104%,121%,120%,121%,127%,138%,113%,117%,127%,115%,123%,115%,130%,121%,151%,146%,133%,143%,139%,148%,54.9%,110%,108%,123%,135%,145%,136%,138%,172%,145%,146%,93.3%
O=c1[nH]c(=O)n(C2CCCO2)cc1F (stereo not drawn),92.4%,124%,105%,119%,122%,127%,92.5%,111%,90.2%,104%,99.1%,123%,120%,109%,126%,115%,110%,127%,114%,123%,122%,104%,70.2%,110%,109%,117%,99.7%,115%,108%,109%,102%,104%,97.8%
CCN1CCN(C(=O)Cc2ccc(Nc3ncc(F)c(Nc4ccc(C(=O)Nc5ccccc5Cl)cc4)n3)cc2)CC1,79.1%,90.8%,97.2%,111%,109%,107%,108%,83.1%,61.2%,33.6%,27.6%,81.8%,108%,103%,108%,118%,105%,101%,82.4%,58.8%,11.5%,8.62%,80.4%,89.3%,111%,97.6%,116%,118%,101%,81.6%,54.4%,19.1%,14.6%
